Consider 25 substances from the OligoGym collection.

The target in the series is APP. The series is described as follows: mouse, dose not given. The conditions noted are these: ASO.

HELM strings list units from the 5' end as sugar, base in round brackets, then linkage (d deoxyribose, r ribose, m 2'-O-methyl, p phosphodiester). Strings are as the collection lists them; they lack the last nucleoside at the 3' end of the tested compound. [moe] = 2'-O-(2-methoxyethyl) (MOE); [sp] = phosphorothioate linkage; [m5C] = 5-methylcytosine

The substance “RNA1{[moe](T)[sp].[moe](G)p.[moe](G)p.[moe](T)p.[moe](A)[sp].d([m5C])[sp].d(T)[sp].d(A)[sp].d(T)[sp].d(T)[sp].d(T)[sp].d([m5C])[sp].d(T)[sp].d(A)[sp].d(A)[sp].[moe](G)p.[moe](G)p.[moe](A)[sp].[moe](A)}$$$$ (last 3' nucleoside missing)” gave a 3 h FOB score of 0.33 score 0-7. “RNA1{[moe](T)[sp].[moe](G)p.[moe](G)p.[moe](T)p.[moe](T)[sp].d(T)[sp].d(A)[sp].d([m5C])[sp].d([m5C])[sp].d(T)[sp].d(T)[sp].d(T)[sp].d(A)[sp].d(A)[sp].d([m5C])[sp].[moe](A)p.[moe](T)p.[moe](T)[sp].[moe]([m5C])}$$$$ (last 3' nucleoside missing)”: the 3 h FOB score worked out at 0 score 0-7. With “RNA1{[moe](T)[sp].[moe](G)p.[moe](G)p.[moe](T)p.[moe]([m5C])[sp].d(A)[sp].d(T)[sp].d(T)[sp].d(A)[sp].d([m5C])[sp].d(T)[sp].d(A)[sp].d([m5C])[sp].d(T)[sp].d(T)[sp].[moe](A)p.[moe]([m5C])p.[moe](A)[sp].[moe]([m5C])}$$$$ (last 3' nucleoside missing)” the figure was 0 score 0-7; with “RNA1{[moe](T)[sp].[moe](G)p.[moe](G)p.[moe](T)p.[moe]([m5C])[sp].d(A)[sp].d(T)[sp].d([m5C])[sp].d(A)[sp].d(A)[sp].d([m5C])[sp].d(T)[sp].d(T)[sp].d(T)[sp].d(T)[sp].[moe](T)p.[moe](A)p.[moe](G)[sp].[moe](T)}$$$$ (last 3' nucleoside missing)”, 0 score 0-7.

For “RNA1{[moe](T)[sp].[moe](G)p.[moe](G)p.[moe](T)p.[moe]([m5C])[sp].d(T)[sp].d(A)[sp].d(T)[sp].d(A)[sp].d(T)[sp].d(A)[sp].d(T)[sp].d(T)[sp].d(T)[sp].d([m5C])[sp].[moe](A)p.[moe](G)p.[moe](G)[sp].[moe]([m5C])}$$$$ (last 3' nucleoside missing)”, the 3 h FOB score was found to be 0 score 0-7. The figure for “RNA1{[moe](T)[sp].[moe](G)p.[moe](G)p.[moe]([m5C])p.[moe](A)[sp].d(A)[sp].d(A)[sp].d([m5C])[sp].d(T)[sp].d([m5C])[sp].d(T)[sp].d([m5C])[sp].d(T)[sp].d(T)[sp].d(A)[sp].[moe](G)p.[moe](G)p.[moe](T)[sp].[moe](T)}$$$$ (last 3' nucleoside missing)” is 1.33 score 0-7; for “RNA1{[moe](T)[sp].[moe](G)p.[moe](G)p.[moe]([m5C])p.[moe](T)[sp].d(T)[sp].d(A)[sp].d(T)[sp].d(G)[sp].d(A)[sp].d(T)[sp].d([m5C])[sp].d(T)[sp].d(A)[sp].d(T)[sp].[moe](A)p.[moe]([m5C])p.[moe](A)[sp].[moe]([m5C])}$$$$ (last 3' nucleoside missing)” it is 1 score 0-7. “RNA1{[moe](T)[sp].[moe](G)p.[moe](T)p.[moe](G)p.[moe](A)[sp].d(T)[sp].d(T)[sp].d(T)[sp].d([m5C])[sp].d(A)[sp].d([m5C])[sp].d(T)[sp].d(A)[sp].d(A)[sp].d([m5C])[sp].[moe]([m5C])p.[moe](G)p.[moe](G)[sp].[moe]([m5C])}$$$$ (last 3' nucleoside missing)”: the 3 h FOB score amounted to 1.25 score 0-7. Consider “RNA1{[moe](T)[sp].[moe](G)p.[moe](T)p.[moe](G)p.[moe]([m5C])[sp].d(A)[sp].d([m5C])[sp].d(A)[sp].d(T)[sp].d(A)[sp].d(A)[sp].d(A)[sp].d(A)[sp].d([m5C])[sp].d(A)[sp].[moe](G)p.[moe](G)p.[moe]([m5C])[sp].[moe](A)}$$$$ (last 3' nucleoside missing)”, for which the 3 h FOB score amounted to 1 score 0-7. On to “RNA1{[moe](T)[sp].[moe](G)p.[moe](T)p.[moe](T)p.[moe]([m5C])[sp].d([m5C])[sp].d(A)[sp].d(A)[sp].d(A)[sp].d(G)[sp].d(A)[sp].d(T)[sp].d(T)[sp].d([m5C])[sp].d([m5C])[sp].[moe](A)p.[moe]([m5C])p.[moe](T)[sp].[moe](T)}$$$$ (last 3' nucleoside missing)”, for which the 3 h FOB score is 1 score 0-7. In turn, “RNA1{[moe](T)[sp].[moe](T)p.[moe](A)p.[moe]([m5C])p.[moe](A)[sp].d(T)[sp].d([m5C])[sp].d(A)[sp].d(T)[sp].d(T)[sp].d(T)[sp].d(T)[sp].d([m5C])[sp].d(T)[sp].d(T)[sp].[moe](G)p.[moe]([m5C])p.[moe](A)[sp].[moe](G)}$$$$ (last 3' nucleoside missing)” returned a 3 h FOB score of 0.33 score 0-7.

Substance “RNA1{[moe](T)[sp].[moe](T)p.[moe](A)p.[moe]([m5C])p.[moe]([m5C])[sp].d(T)[sp].d(T)[sp].d(T)[sp].d(A)[sp].d(A)[sp].d([m5C])[sp].d(A)[sp].d(T)[sp].d(T)[sp].d([m5C])[sp].[moe]([m5C])p.[moe](T)p.[moe]([m5C])[sp].[moe](A)}$$$$ (last 3' nucleoside missing)” gave a 3 h FOB score of 0 score 0-7. In the case of “RNA1{[moe](T)[sp].[moe](T)p.[moe](G)p.[moe](A)p.[moe](A)[sp].d([m5C])[sp].d([m5C])[sp].d([m5C])[sp].d(A)[sp].d([m5C])[sp].d(A)[sp].d(T)[sp].d([m5C])[sp].d(T)[sp].d(T)[sp].[moe]([m5C])p.[moe](T)p.[moe](G)[sp].[moe]([m5C])}$$$$ (last 3' nucleoside missing)”, the 3 h FOB score came to 0 score 0-7.

Substance “RNA1{[moe](T)[sp].[moe](T)p.[moe](G)p.[moe](A)p.[moe](T)[sp].d(A)[sp].d(T)[sp].d(T)[sp].d(T)[sp].d(G)[sp].d(T)[sp].d([m5C])[sp].d(A)[sp].d(A)[sp].d([m5C])[sp].[moe]([m5C])p.[moe]([m5C])p.[moe](A)[sp].[moe](G)}$$$$ (last 3' nucleoside missing)” gave a 3 h FOB score of 2.5 score 0-7.

Substance “RNA1{[moe](T)[sp].[moe](T)p.[moe](G)p.[moe](A)p.[moe](T)[sp].d(G)[sp].d([m5C])[sp].d(A)[sp].d([m5C])[sp].d(A)[sp].d(T)[sp].d(A)[sp].d(T)[sp].d([m5C])[sp].d([m5C])[sp].[moe](A)p.[moe](G)p.[moe](G)[sp].[moe]([m5C])}$$$$ (last 3' nucleoside missing)” came in with a 3 h FOB score of 2 score 0-7. “RNA1{[moe](T)[sp].[moe](T)p.[moe](G)p.[moe](A)p.[moe](T)p.[moe](A)p.d(T)[sp].d(T)[sp].d(T)[sp].d(G)[sp].d(T)[sp].d([m5C])[sp].d(A)[sp].d(A)[sp].d([m5C])[sp].d([m5C])[sp].[moe]([m5C])p.[moe](A)[sp].[moe](G)}$$$$ (last 3' nucleoside missing)” yielded a 3 h FOB score of 4.75 score 0-7. With “RNA1{[moe](T)[sp].[moe](T)p.[moe](G)p.[moe](G)p.[moe](A)[sp].d(T)[sp].d(T)[sp].d([m5C])[sp].d(A)[sp].d(T)[sp].d([m5C])[sp].d(T)[sp].d([m5C])[sp].d([m5C])[sp].d(A)[sp].[moe](T)p.[moe](A)p.[moe]([m5C])[sp].[moe](T)}$$$$ (last 3' nucleoside missing)” the figure was 0 score 0-7; with “RNA1{[moe](T)[sp].[moe](T)p.[moe](G)p.[moe](T)p.[moe](A)[sp].d(G)[sp].d(G)[sp].d(A)[sp].d(A)[sp].d([m5C])[sp].d(T)[sp].d([m5C])[sp].d(G)[sp].d(A)[sp].d(A)[sp].[moe]([m5C])p.[moe]([m5C])p.[moe](A)[sp].[moe]([m5C])}$$$$ (last 3' nucleoside missing)”, 2 score 0-7; with “RNA1{[moe](T)[sp].[moe](T)p.[moe](T)p.[moe](A)p.[moe]([m5C])[sp].d([m5C])[sp].d(T)[sp].d(T)[sp].d(T)[sp].d(A)[sp].d(A)[sp].d([m5C])[sp].d(A)[sp].d(T)[sp].d(T)[sp].[moe]([m5C])p.[moe]([m5C])p.[moe](T)[sp].[moe]([m5C])}$$$$ (last 3' nucleoside missing)”, 0 score 0-7. “RNA1{[moe](T)[sp].[moe](T)p.[moe](T)p.[moe](G)p.[moe]([m5C])[sp].d(A)[sp].d(T)[sp].d(A)[sp].d(T)[sp].d(T)[sp].d([m5C])[sp].d(A)[sp].d(T)[sp].d(A)[sp].d([m5C])[sp].[moe](T)p.[moe](T)p.[moe](G)[sp].[moe](G)}$$$$ (last 3' nucleoside missing)” registered a 3 h FOB score of 0 score 0-7. On to “RNA1{[moe](T)[sp].[moe](T)p.[moe](T)p.[moe](G)p.[moe]([m5C])[sp].d(T)[sp].d(A)[sp].d([m5C])[sp].d(T)[sp].d(T)[sp].d(G)[sp].d(A)[sp].d(T)[sp].d(A)[sp].d(A)[sp].[moe](T)p.[moe]([m5C])p.[moe]([m5C])[sp].[moe](T)}$$$$ (last 3' nucleoside missing)”, for which the 3 h FOB score is 1 score 0-7. For “RNA1{[moe](T)[sp].[moe](T)p.[moe]([m5C])p.[moe](A)p.[moe]([m5C])[sp].d(A)[sp].d(G)[sp].d(T)[sp].d(T)[sp].d(T)[sp].d(A)[sp].d([m5C])[sp].d([m5C])[sp].d([m5C])[sp].d([m5C])[sp].[moe](A)p.[moe](A)p.[moe](G)[sp].[moe]([m5C])}$$$$ (last 3' nucleoside missing)”, the 3 h FOB score was determined as 0 score 0-7. The figure for “RNA1{[moe](T)[sp].[moe](T)p.[moe]([m5C])p.[moe]([m5C])p.[moe](A)[sp].d(A)[sp].d(A)[sp].d(G)[sp].d(A)[sp].d(T)[sp].d(T)[sp].d([m5C])[sp].d([m5C])[sp].d(A)[sp].d([m5C])[sp].[moe](T)p.[moe](T)p.[moe](T)[sp].[moe]([m5C])}$$$$ (last 3' nucleoside missing)” is 0 score 0-7; for “RNA1{[moe](T)[sp].[moe]([m5C])p.[moe](A)p.[moe](G)p.[moe]([m5C])[sp].d([m5C])[sp].d([m5C])[sp].d([m5C])[sp].d(A)[sp].d(A)[sp].d(A)[sp].d(A)[sp].d(G)[sp].d(A)[sp].d(A)[sp].[moe](T)p.[moe](G)p.[moe]([m5C])[sp].[moe]([m5C])}$$$$ (last 3' nucleoside missing)” it is 0 score 0-7. The substance “RNA1{[moe](T)[sp].[moe]([m5C])p.[moe](A)p.[moe](T)p.[moe](A)[sp].d(T)[sp].d(T)[sp].d(G)[sp].d(T)[sp].d([m5C])[sp].d(T)[sp].d(T)[sp].d([m5C])[sp].d(A)[sp].d(A)[sp].[moe](T)p.[moe](G)p.[moe](T)[sp].[moe](G)}$$$$ (last 3' nucleoside missing)” showed a 3 h FOB score of 2 score 0-7.
